Assay results taken from PubChem BioAssay AID2060912 (Molecular Pharmacology Branch, DTP, NCI, 2025).

Tested on: HUVEC/MSC spheroids viability
Assay: Human HUVEC/MSC cell line growth inhibition [KRAS2];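 for viability, T/C: percent of DMSO vehicle control luminescence so 100% = untreated viability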
Settings: for IC50: curve of first compound; for viability, T/C: stronger effect = lower value; active = viability on the fitted dose curve at most 10% of control; inactive = the rest
Procedure, shortened: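 HUVEC + hMSC stromal spheroids only, no malignant cells; 37 °C, 5% CO2. Drugs singly and in pairs, half-log series down from clinical Cmax (max 10 microM if Cmax undetermined).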

CC(=O)Nc1cccc(-n2c(=O)n(C3CC3)c(=O)c3c(Nc4ccc(I)cc4F)n(C)c(=O)c(C)c32)c1 + C=CC(=O)N1CCN(c2nc(=O)n(-c3c(C)ccnc3C(C)C)c3nc(-c4c(O)cccc4F)c(F)cc23)C(C)C1
17.8 nM: IC50 (second compound 0.1 µM)
16.3 nM: IC50 (second compound 3.16 µM)
13.7 nM: IC50 (second compound 10 µM)
active: viability, T/C (second compound 10 µM, first compound 0.03 µM) 8.78%
16.1 nM: IC50 (second compound 0.0316 µM)
17.9 nM: IC50 (second compound 1 µM)
16.8 nM: IC50 (second compound 0.316 µM)
inactive: viability, T/C (second compound 0.0316 µM, first compound 94.9 pM) 126% | viability, T/C (second compound 0.0316 µM, first compound 0.0003 µM) 140% | viability, T/C (second compound 0.0316 µM, first compound 0.000949 µM) 163% | viability, T/C (second compound 0.0316 µM, first compound 0.003 µM) 114% | viability, T/C (second compound 0.0316 µM, first compound 0.00949 µM) 77.1% | viability, T/C (second compound 0.0316 µM, first compound 0.03 µM) 20.7% | viability, T/C (second compound 0.1 µM, first compound 94.9 pM) 92.7% | viability, T/C (second compound 0.1 µM, first compound 0.0003 µM) 130% | viability, T/C (second compound 0.1 µM, first compound 0.000949 µM) 141% | viability, T/C (second compound 0.1 µM, first compound 0.003 µM) 113% | viability, T/C (second compound 0.1 µM, first compound 0.00949 µM) 88.3% | viability, T/C (second compound 0.1 µM, first compound 0.03 µM) 18.6% | viability, T/C (second compound 0.316 µM, first compound 94.9 pM) 126% | viability, T/C (second compound 0.316 µM, first compound 0.0003 µM) 157% | viability, T/C (second compound 0.316 µM, first compound 0.000949 µM) 151% | viability, T/C (second compound 0.316 µM, first compound 0.003 µM) 119% | viability, T/C (second compound 0.316 µM, first compound 0.00949 µM) 80.3% | viability, T/C (second compound 0.316 µM, first compound 0.03 µM) 20.6% | viability, T/C (second compound 1 µM, first compound 94.9 pM) 148% | viability, T/C (second compound 1 µM, first compound 0.0003 µM) 133% | viability, T/C (second compound 1 µM, first compound 0.000949 µM) 148% | viability, T/C (second compound 1 µM, first compound 0.003 µM) 112% | viability, T/C (second compound 1 µM, first compound 0.00949 µM) 89.8% | viability, T/C (second compound 1 µM, first compound 0.03 µM) 19.7% | viability, T/C (second compound 3.16 µM, first compound 94.9 pM) 144% | viability, T/C (second compound 3.16 µM, first compound 0.0003 µM) 157% | viability, T/C (second compound 3.16 µM, first compound 0.000949 µM) 170% | viability, T/C (second compound 3.16 µM, first compound 0.003 µM) 120% | viability, T/C (second compound 3.16 µM, first compound 0.00949 µM) 82% | viability, T/C (second compound 3.16 µM, first compound 0.03 µM) 16.8% | viability, T/C (second compound 10 µM, first compound 94.9 pM) 134% | viability, T/C (second compound 10 µM, first compound 0.0003 µM) 157% | viability, T/C (second compound 10 µM, first compound 0.000949 µM) 164% | viability, T/C (second compound 10 µM, first compound 0.003 µM) 130% | viability, T/C (second compound 10 µM, first compound 0.00949 µM) 70.4%

CCNC(=O)CC1N=C(c2ccc(Cl)cc2)c2cc(OC)ccc2-n2c(C)nnc21 (centres undefined) + CC1OCC2(CCN(c3cnc(Sc4ccnc(N)c4Cl)c(N)n3)CC2)C1N
inactive: viability, T/C (second compound 0.0316 µM, first compound 0.0316 µM) 79.7% | viability, T/C (second compound 0.0316 µM, first compound 0.1 µM) 102% | viability, T/C (second compound 0.0316 µM, first compound 0.316 µM) 99.2% | viability, T/C (second compound 0.0316 µM, first compound 1 µM) 87.5% | viability, T/C (second compound 0.0316 µM, first compound 3.16 µM) 110% | viability, T/C (second compound 0.0316 µM, first compound 10 µM) 89.4% | viability, T/C (second compound 0.1 µM, first compound 0.0316 µM) 107% | viability, T/C (second compound 0.1 µM, first compound 0.1 µM) 86.2% | viability, T/C (second compound 0.1 µM, first compound 0.316 µM) 102% | viability, T/C (second compound 0.1 µM, first compound 1 µM) 91.8% | viability, T/C (second compound 0.1 µM, first compound 3.16 µM) 99% | viability, T/C (second compound 0.1 µM, first compound 10 µM) 95.3% | viability, T/C (second compound 0.316 µM, first compound 0.0316 µM) 90.6% | viability, T/C (second compound 0.316 µM, first compound 0.1 µM) 88.6% | viability, T/C (second compound 0.316 µM, first compound 0.316 µM) 87.1% | viability, T/C (second compound 0.316 µM, first compound 1 µM) 88.2% | viability, T/C (second compound 0.316 µM, first compound 3.16 µM) 88% | viability, T/C (second compound 0.316 µM, first compound 10 µM) 84.1% | viability, T/C (second compound 1 µM, first compound 0.0316 µM) 79.3% | viability, T/C (second compound 1 µM, first compound 0.1 µM) 97.8% | viability, T/C (second compound 1 µM, first compound 0.316 µM) 76.6% | viability, T/C (second compound 1 µM, first compound 1 µM) 68.4% | viability, T/C (second compound 1 µM, first compound 3.16 µM) 77.2% | viability, T/C (second compound 1 µM, first compound 10 µM) 58.8% | viability, T/C (second compound 3.16 µM, first compound 0.0316 µM) 83.5% | viability, T/C (second compound 3.16 µM, first compound 0.1 µM) 103% | viability, T/C (second compound 3.16 µM, first compound 0.316 µM) 81.4% | viability, T/C (second compound 3.16 µM, first compound 1 µM) 73.8% | viability, T/C (second compound 3.16 µM, first compound 3.16 µM) 66% | viability, T/C (second compound 3.16 µM, first compound 10 µM) 51.3% | viability, T/C (second compound 10 µM, first compound 0.0316 µM) 66% | viability, T/C (second compound 10 µM, first compound 0.1 µM) 64.5% | viability, T/C (second compound 10 µM, first compound 0.316 µM) 77.8% | viability, T/C (second compound 10 µM, first compound 1 µM) 64% | viability, T/C (second compound 10 µM, first compound 3.16 µM) 49.6% | viability, T/C (second compound 10 µM, first compound 10 µM) 30%
> 10000 nM: IC50 (second compound 0.0316 µM) | IC50 (second compound 0.1 µM) | IC50 (second compound 0.316 µM) | IC50 (second compound 1 µM) | IC50 (second compound 3.16 µM)
3020 nM: IC50 (second compound 10 µM)
